Several values for one entry are separate records, joined by “and”; a condition that tells them apart may be missing. Identical values can stand only once. Like-named read-outs stand apart in the source and are kept apart here.
What was measured:
LAT1 = target: T1, LAT1 (Mus musculus, UniProt Q9Z127); assay: Ability to bind LAT1: inhibition of [14C]-L-leucine uptake in mouse primary astrocytes; format: cell-based; settings: mean ± SD; for IC50: n = 3-4, read-out: IC50 in astrocytes (LAT1-probe substrate [14C]-L-leucine uptake)
T1 construct: mouse primary astrocytes, from which we have recently characterized LAT1 expression and function; endogenous in cells; host or cells: mouse primary astrocytes (cortex and hippocampi of 2-day-old wild-type and APP/PS1 mice)
Experimental: For the transporter binding studies, the astrocytes were seeded on 24-well plates with a density of 10 × 10^4 cells/well three days before the experiments. After removal of the culture medium, the cells were carefully washed with prewarmed HBSS (Hank's balance salt solution) containing choline chloride (125 mM), KCl (4.8 mM), MgSO4 (1.2 mM), KH2PO4 (1.2 mM), CaCl2 (1.3 mM), glucose (5.6 mM), and HEPES (25 mM) adjusted to pH 7.4 with 1 M NaOH. The cells were preincubated with 500 μL of prewarmed HBSS at 37°C for 10 min before the experiments. To study the ability of studied compounds to inhibit the uptake of a known LAT1 substrate, the cells were incubated at 37°C for 5 min with an uptake buffer (HBSS, 250 μL) containing 0.76 μM (0.25 mCi/mL or 9.85 MBq/mL) of [^14C]-L-leucine (PerkinElmer, Inc., Waltham, MA, USA) and 0.1-1000 μM of studied compound (or HBSS as blank). After incubation, the uptake was stopped by adding 500 μL of ice-cold HBSS and the cells were washed two times with ice-cold HBSS. The cells were then lysed with 500 μL of NaOH (0.1 M) for 60 min, and the lysate was mixed with 3.5 mL of Emulsifier safe cocktail (Ultima Gold, PerkinElmer, Inc., Waltham, MA, USA). The radioactivity in the cells was measured by liquid scintillation counting (MicroBeta^2 counter, PerkinElmer, Inc., Waltham, MA, USA). Half of maximum inhibitory concentration (IC50) values were calculated by nonlinear regression analysis (fitting the curve to log (concentration) vs. remaining normalized […]).

[1] = target: T2, acetylcholinesterase (AChE) (Mus musculus, UniProt P21836); assay: biochemical; format: biochemical; settings: for Vmax of AChE activity in the presence of derivative (Hanes-Woolf plot): 16-66 μM derivative, Crtl Vmax = 2.21
T2 construct: mouse brain S9 fraction was prepared by homogenizing freshly collected mouse brain; from tissue; host or cells: mouse brain S9 fraction (9 000 x g supernatant)
T2 sequence (P21836 32-614): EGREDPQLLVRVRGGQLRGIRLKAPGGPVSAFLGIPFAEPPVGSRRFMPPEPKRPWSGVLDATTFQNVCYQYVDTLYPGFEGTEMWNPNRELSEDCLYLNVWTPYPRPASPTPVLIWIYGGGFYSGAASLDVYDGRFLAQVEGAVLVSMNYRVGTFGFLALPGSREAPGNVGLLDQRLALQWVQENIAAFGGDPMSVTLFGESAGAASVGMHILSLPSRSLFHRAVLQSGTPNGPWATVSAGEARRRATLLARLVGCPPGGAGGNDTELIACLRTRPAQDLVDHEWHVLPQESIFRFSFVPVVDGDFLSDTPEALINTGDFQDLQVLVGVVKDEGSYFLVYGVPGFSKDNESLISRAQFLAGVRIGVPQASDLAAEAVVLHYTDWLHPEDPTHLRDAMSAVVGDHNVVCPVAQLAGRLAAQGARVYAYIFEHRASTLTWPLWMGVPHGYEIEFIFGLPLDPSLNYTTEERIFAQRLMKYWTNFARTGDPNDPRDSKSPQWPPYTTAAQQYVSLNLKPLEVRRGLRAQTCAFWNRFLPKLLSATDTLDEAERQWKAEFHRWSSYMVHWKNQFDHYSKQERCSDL
Experimental: Briefly, mouse brain S9 fraction was prepared by homogenizing freshly collected mouse brain with 50 mM Tris-buffered saline (TBS) (pH 7.4) (1 : 4, w/v), centrifuging the homogenate at 9 000 × g for 20 min at 4°C and collecting the supernatant. The supernatant was then diluted at 1 : 10 with phosphate-buffered saline (100 mM; pH 7.0) and mixed with Ellman's reagent (5,5′-dithiobis-(2-nitrobenzoic acid); DTNB; 1 mM) and studied compounds in DMSO (DMSO concentration was less than 0.5%) on a 96-well plate as 3 parallel assays.
According to the Hanes-Woolf plots, the ratio of initial substrate concentration to the reaction velocity ([S]/v) was plotted against the substrate concentration (μM).

purified human BACE1 = target: T3, purified human BACE1 (Homo sapiens, UniProt P56817); assay: BACE1 FRET inhibition assay (SensoLyte 520); format: biochemical; settings: 1 and 10 μM; 30 min
T3 construct: purchased AnaSpec, Inc., Fremont, CA, USA SensoLyte 520 BACE1 Assay kit (catalogue number not given)
From the text: A fluorometric assay was used to screen the inhibitory effect of the studied compounds on purified human BACE1 using a fluorescence resonance energy transfer (FRET) peptide technique (SensoLyte© 520 BACE1 Assay kit, AnaSpec, Inc., Fremont, CA, USA) according to the manufacturer's protocol. […] The sequence of the FRET peptide has been derived from the β-secretase cleavage site of β-amyloid precursor protein (APP) with Swedish mutation, which enhances β-secretase to process APP resulting in an early onset of AD. Thus, active β-secretase cleaved FRET substrate into two separate fragments resulting in the release of HiLyte™ Fluor 488 fluorescence that was measured by the EnVision plate reader (EnVision, PerkinElmer, Inc., Waltham, MA, USA) at λex 490 nm and λem 520 nm. […] The results were reported as percentages (%), with control sample representing 100% β-secretase activity.

[2] = Intracellular unbound drug concentration ratio (Kp,uu) in astrocytes; format: in vitro ADME; settings: C57BL/6J, mouse, read-out: Kp,uu (unbound intracellular : extracellular ratio)
Experimental: The unbound fraction of FA and its derivatives 1-2 was determined at 10 μM in cell homogenate by using a Rapid Equilibrium Dialysis (RED) device (Thermo Fisher Scientific, Inc., Waltham, MA, USA). Briefly, the cell homogenate was prepared from astrocyte cell suspension (10 × 10^6 cells/mL) in HBSS with a SoniPerp 150 Plus disintegrator (MSE Ltd., London, UK) for 2 s × 3. 100 μL of cell homogenate spiked with the studied compound was added to the reaction chamber, and 350 μL of HBSS buffer was added to the buffer chamber of the RED plate. The dialysis plate was incubated at 37°C for 4 h with shaking. […]
The drug concentration ratio in astrocytes (Kp) was determined at 0.01-1.0 μM concentrations by comparing the cellular uptake from the cell lysates (0.1 M NaOH) to the concentration detected from the surrounding buffer (HBSS) collected before cell lysing as described by Mateus et al.: (3) Kp=Acell/Vcell/Cmedium, where Acell is the amount of compound in the cell lysate (nmol), Vcell is the astrocyte cell volume (0.05810^−15 L/cell) for 10 × 10^4 cells/well, and Cmedium is the compound concentration in the surrounding buffer. The unbound drug concentration ratio (Kp,uu) was then calculated by multiplying the drug concentration ratio (Kp) by unbound drug fraction (fu,cell) as described by Mateus et al.: (4) Kp,uu=Kp×fu,cell.

[3] = mouse brain S9 subcellular fraction, 30 min end point, mean ± SD, n = 3

T1 sequence (Q9Z127 whole entry): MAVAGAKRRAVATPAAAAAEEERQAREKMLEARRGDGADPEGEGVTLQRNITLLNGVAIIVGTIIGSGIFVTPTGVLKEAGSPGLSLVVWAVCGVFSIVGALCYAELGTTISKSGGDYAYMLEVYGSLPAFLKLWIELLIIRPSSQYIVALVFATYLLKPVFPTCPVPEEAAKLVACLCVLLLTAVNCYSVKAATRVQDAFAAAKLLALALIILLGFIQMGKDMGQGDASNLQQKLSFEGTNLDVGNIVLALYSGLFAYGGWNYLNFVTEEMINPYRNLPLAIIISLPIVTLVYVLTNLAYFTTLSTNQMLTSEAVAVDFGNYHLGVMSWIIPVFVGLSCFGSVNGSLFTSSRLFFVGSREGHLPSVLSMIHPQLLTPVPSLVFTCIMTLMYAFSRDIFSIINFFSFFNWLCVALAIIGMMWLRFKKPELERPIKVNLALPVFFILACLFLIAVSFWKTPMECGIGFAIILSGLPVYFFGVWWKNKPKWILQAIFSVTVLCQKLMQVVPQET
T1 sequence (P10852 whole entry partner): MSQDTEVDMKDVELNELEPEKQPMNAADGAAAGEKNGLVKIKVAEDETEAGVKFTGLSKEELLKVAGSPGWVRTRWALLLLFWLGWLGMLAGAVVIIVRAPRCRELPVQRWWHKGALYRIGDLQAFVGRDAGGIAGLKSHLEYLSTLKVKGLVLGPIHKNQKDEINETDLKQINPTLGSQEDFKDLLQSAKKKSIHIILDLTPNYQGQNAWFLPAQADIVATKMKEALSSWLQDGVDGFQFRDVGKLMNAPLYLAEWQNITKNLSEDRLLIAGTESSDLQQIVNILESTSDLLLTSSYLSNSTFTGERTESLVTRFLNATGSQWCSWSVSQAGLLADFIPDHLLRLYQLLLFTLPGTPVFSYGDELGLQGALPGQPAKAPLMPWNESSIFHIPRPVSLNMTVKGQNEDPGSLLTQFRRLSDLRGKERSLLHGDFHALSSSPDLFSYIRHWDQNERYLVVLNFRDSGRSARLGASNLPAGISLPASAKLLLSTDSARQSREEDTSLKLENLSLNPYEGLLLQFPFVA
T3 sequence (P56817 46-501): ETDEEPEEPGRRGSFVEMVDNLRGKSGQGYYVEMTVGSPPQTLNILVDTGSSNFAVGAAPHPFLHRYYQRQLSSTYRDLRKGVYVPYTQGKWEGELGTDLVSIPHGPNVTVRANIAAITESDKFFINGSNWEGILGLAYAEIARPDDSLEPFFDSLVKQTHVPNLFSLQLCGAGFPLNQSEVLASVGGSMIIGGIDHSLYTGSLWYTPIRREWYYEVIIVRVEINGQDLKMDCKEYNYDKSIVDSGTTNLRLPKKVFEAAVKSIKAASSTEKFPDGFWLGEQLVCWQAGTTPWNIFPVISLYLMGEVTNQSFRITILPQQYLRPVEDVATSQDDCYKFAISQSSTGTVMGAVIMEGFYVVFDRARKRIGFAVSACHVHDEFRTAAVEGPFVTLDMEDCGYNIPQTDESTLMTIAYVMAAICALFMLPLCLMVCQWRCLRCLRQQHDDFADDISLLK

In the case of `COc1cc(C=CC(=O)Oc2cccc(CC(N)C(=O)O)c2)ccc1O` (stereo not shown) [FA-derivative 3], the IC50 (LAT1) is reported as 28.7 ± 1.15 µM, the “Vmax of AChE activity in the presence of derivative (Hanes-Woolf plot)” value [1] is reported as 2.09 nmol/min/mg and the IC50 [1, 3] is reported as 66.2 ± 1.23 µM. For the same molecule, the BACE1 inhibition (purified human BACE1) was 81–91%.

With `COc1cc(/C=C/C(=O)O)ccc1O` [FA, trans-4-hydroxy-3-methoxycinnamic acid, reference compound] the “IC50 in astrocytes (LAT1-probe substrate [14C]-L-leucine uptake)” value (LAT1; n = 3-4) was “No inhibition”, the “AChE IC50 value” [1, 3] was “No inhibition” and the BACE1 inhibition (purified human BACE1) was roughly 97%.

`COc1cc(C=CC(=O)Nc2cccc(CC(N)C(=O)O)c2)ccc1O` (stereo not shown) [FA-derivative 2] showed a Kp uu ([2]; throughout the studied concentrations (0.01-1.0 μM)) of 0.83 to 1.74, an IC50 (LAT1) of 8.9 ± 1.25 µM and an IC50 [1, 3] of 25.2 ± 1.43 µM. For the same molecule, the BACE1 inhibition (purified human BACE1) was 91–97%.

In the case of `COc1cc(C=CC(=O)NCc2cccc(CC(N)C(=O)O)c2)ccc1O` (stereo not shown) [FA-derivative 1], the Kp uu ([2]; lower concentrations (<0.1 μM)) is reported as 0.25 to 2.14, the IC50 (LAT1) is reported as 2.2 µM and 2.15 µM and the “Vmax of AChE activity in the presence of derivative (Hanes-Woolf plot)” value [1] is reported as 2.12 nmol/min/mg. For the same molecule, the IC50 [1, 3] was 16.3 ± 1.52 µM and the BACE1 inhibition (purified human BACE1) was 78–91%.

Source: paper PMC6877910, “Astrocyte-Targeted Transporter-Utilizing Derivatives of Ferulic Acid Can Have Multifunctional Effects Ameliorating Inflammation and Oxidative Stress in the Brain” (Oxidative Medicine and Cellular Longevity, 2019)
